Measurements as given in US20090258942A1 (priority 2008, published 2009).

Tests used:
[1] = system: MCF-7 breast cancer xenografts; experiment: MCF-7 kidney capsule xenografts; details: 28 days; E2 0.5 mg/h, Calycosin 2.5 mg/h in saline; FIG. 5
Protocol: MCF-7 xenografts were introduced into nude mouse kidneys. Mice were randomized to three treatment groups. […] Each treatment group was treated for 28 days, after which mice were euthanized and the kidneys containing the xenografts were excised, photographed and weighed.

[2] = biological target: ERβ (Homo sapiens, UniProt Q92731); details: in the presence of ERβ
Text: (§1) Light emission at 560 nm is conveniently quantified in optical density units (O.D.560 nm).

[3] = system: TNF-RE tkLuc; experiment: TNF-RE tkLuc reporter, effect of antiestrogens; type: cell-based; details: in contrast to E2
Text: as §1

[4] = biological target: estrogen receptor beta (ERβ) (Homo sapiens, UniProt Q92731); details: added to (a), (b), (c) or (d); FIGS. 4a-4d
Sequence of estrogen receptor beta (ERβ) (Q92731 whole entry): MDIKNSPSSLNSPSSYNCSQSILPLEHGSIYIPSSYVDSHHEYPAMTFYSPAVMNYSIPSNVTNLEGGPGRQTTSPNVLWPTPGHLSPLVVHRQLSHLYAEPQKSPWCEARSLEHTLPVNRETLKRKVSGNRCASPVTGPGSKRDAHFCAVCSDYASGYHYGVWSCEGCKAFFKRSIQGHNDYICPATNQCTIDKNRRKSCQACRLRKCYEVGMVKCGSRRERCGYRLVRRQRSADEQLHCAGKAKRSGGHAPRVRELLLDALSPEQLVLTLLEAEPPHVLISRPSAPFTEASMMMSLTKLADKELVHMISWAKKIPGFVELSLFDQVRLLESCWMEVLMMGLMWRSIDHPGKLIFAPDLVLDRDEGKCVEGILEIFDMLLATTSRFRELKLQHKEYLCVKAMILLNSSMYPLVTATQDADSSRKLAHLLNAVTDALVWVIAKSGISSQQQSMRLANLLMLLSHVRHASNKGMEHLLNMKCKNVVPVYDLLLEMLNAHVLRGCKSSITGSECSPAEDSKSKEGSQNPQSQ

[5] = system: breast cancer; details: among 5129 women in the treatment group; median follow-up 40 months; cited from earlier work
[6] = system: estrogen receptor-positive breast cancer; details: five years of therapy; cited from earlier work
[7] = system: primary invasive breast cancer; details: women at high risk for breast cancer; cited from earlier work

Sequence of ERβ (Q92731 whole entry): as above

COc1ccc(-c2coc3cc(O)ccc3c2=O)cc1O [Calycosin, 3-(4-methoxy-3-hydroxyphenyl)-7-hydroxycoumarin]
growth of MCF-7 kidney capsule xenografts as compared to control [1]: inhibits the growth of MCF-7 breast cancer xenografts

C[C@]12CC[C@@H]3c4ccc(O)cc4CC[C@H]3[C@@H]1CC[C@@H]2O [E2, estradiol]
repression of TNF-α activation of TNF-RE tkLuc [2]: 60-80%

C[C@]12CC[C@@H]3c4ccc(O)cc4C[C@@H](CCCCCCCCC[S+]([O-])CCCC(F)(F)C(F)(F)F)[C@H]3[C@@H]1CC[C@@H]2O (stereo partly shown) [ICI 182780]
activation of TNF-RE tkLuc [3]: 2 fold

O=C(c1ccc(OCCN2CCCCC2)cc1)c1c(-c2ccc(O)cc2)sc2cc(O)ccc12 [raloxifene]
activation of TNF-RE tkLuc [3]: 2 fold | effect of addition on ERE activation by compounds (a)-(d) through ERβ [4]: reduced this activation | cases of breast cancer [5]: 13 cases

CC/C(=C(\c1ccccc1)c1ccc(OCCN(C)C)cc1)c1ccccc1 [tamoxifen]
activation of TNF-RE tkLuc [3]: 2 fold | reduction of mortality from breast cancer [6]: 22% | reduction of the risk of recurrences [6]: 42% | reduction of the risk of primary invasive breast cancer [7]: 49%
